Data reported in PMC6946680, “Modulation of brain cation-Cl^− cotransport via the SPAK kinase inhibitor ZT-1a” (Nature Communications, 2020).
“And” between values parts separate entries of the source, which are not always exact repeats. Equal entries are not always repeated.

Columns and labels:
Assay type in all cases: cell-based, human
[1] = tested on: KCC3 pThr991; experiment: Immunoblot of KCC site 1 phosphorylation (KCC3 Thr991) in HEK-293 cells transfected with FLAG-KCC3
[2] = tested on: NKCC1 pThr203/207/212; experiment: Immunoblot of NKCC1 p-Thr203/Thr207/Thr212 in HEK-293 cells
Experimental: (§1) Band intensities were quantitated with ImageJ software. ***p < 0.001; **p < 0.01; *p < 0.05; ns, nonsignificant [by one-way ANOVA with post hoc testing (n = 6, error bars represent the mean ± SEM)].
(§2) Thirty-six hours post transfection, cells were stimulated with either control isotonic or hypotonic medium for a period of 30 min. […] Protein concentrations were determined using the Bradford method. Cells were treated with the indicated concentrations of the SPAK/OSR1 inhibitors.

[3] = tested on: SPAK pSer373; experiment: Immunoblot of SPAK/OSR1 p-Ser373/Ser325 in HEK-293 cells
Experimental: as §1, §2

[4] = tested on: KCC3 pThr1048; experiment: Immunoblot of KCC site 2 phosphorylation (KCC3 Thr1048) in HEK-293 cells transfected with FLAG-KCC3
[5] = Hypotonic low Cl, compound concentration 1 (unit not given)
[6] = Hypotonic low Cl, compound concentration 3 (unit not given)
[7] = Hypotonic low Cl, compound concentration 10 (unit not given)
[8] = Isotonic control, compound concentration 1 (unit not given)
[9] = Isotonic control, compound concentration 3 (unit not given)
[10] = Isotonic control, compound concentration 10 (unit not given)

Structure (SMILES): Cc1cc(C(C#N)c2ccc(Cl)cc2)c(Cl)cc1NC(=O)c1ccccc1N (centres unmarked) [ZT-1d]
- Site-1 phospho / KCC [1, 5]: 0.516 and 0.487 and 0.55 and 0.508
- Site-1 phospho / KCC [1, 6]: 0.509 and 0.49 and 0.511 and 0.521
- Site-1 phospho / KCC [1, 7]: 0.276 and 0.218 and 0.234 and 0.258
- Site-1 phospho / KCC [1, 8]: 0.49 and 0.471 and 0.48 and 0.466
- Site-1 phospho / KCC [1, 9]: 0.355 and 0.36 and 0.38 and 0.371
- Site-1 phospho / KCC [1, 10]: 0.218 and 0.232 and 0.255 and 0.241
- pThrNKCC1 / NKCC1 [2, 5]: 0.46 and 0.429 and 0.413 and 0.49
- pThrNKCC1 / NKCC1 [2, 6]: 0.27 and 0.21 and 0.203 and 0.251
- pThrNKCC1 / NKCC1 [2, 7]: 0.11 and 0.077 and 0.102 and 0.085
- pThrNKCC1 / NKCC1 [2, 8]: 0.313 and 0.307 and 0.286 and 0.297
- pThrNKCC1 / NKCC1 [2, 9]: 0.143 and 0.119 and 0.09 and 0.126
- pThrNKCC1 / NKCC1 [2, 10]: 0.055 and 0.031 and 0.042 and 0.047
- pSer373 / SPAK [3, 5]: 0.19 and 0.21 and 0.18 and 0.207
- pSer373 / SPAK [3, 6]: 0.131 and 0.12 and 0.103 and 0.116
- pSer373 / SPAK [3, 7]: 0.04 and 0.025 and 0.035 and 0.031
- pSer373 / SPAK [3, 8]: 0.11 and 0.119 and 0.109 and 0.101
- pSer373 / SPAK [3, 9]: 0.072 and 0.065 and 0.051 and 0.063
- pSer373 / SPAK [3, 10]: 0.022 and 0.031 and 0.038 and 0.028
- Site-2 phospho / KCC [4, 5]: 0.37 and 0.41 and 0.35 and 0.482
- Site-2 phospho / KCC [4, 6]: 0.29 and 0.25 and 0.23 and 0.287
- Site-2 phospho / KCC [4, 7]: 0.105 and 0.124 and 0.08 and 0.117
- Site-2 phospho / KCC [4, 8]: 0.412 and 0.477 and 0.43 and 0.521
- Site-2 phospho / KCC [4, 9]: 0.209 and 0.165 and 0.191 and 0.177
- Site-2 phospho / KCC [4, 10]: 0.108 and 0.08 and 0.114 and 0.094

Structure (SMILES): Cc1cc(C(C#N)c2ccc(Cl)cc2)c(Cl)cc1NC(=O)c1cccc(F)c1O (centres unmarked) [ZT-1h]
- Site-1 phospho / KCC [1, 5]: 0.488 and 0.427 and 0.359 and 0.502
- Site-1 phospho / KCC [1, 6]: 0.412 and 0.376 and 0.392 and 0.431
- Site-1 phospho / KCC [1, 7]: 0.165 and 0.187 and 0.122 and 0.203
- Site-1 phospho / KCC [1, 8]: 0.455 and 0.431 and 0.5108 and 0.482
- Site-1 phospho / KCC [1, 9]: 0.419 and 0.386 and 0.354 and 0.437
- Site-1 phospho / KCC [1, 10]: 0.215 and 0.201 and 0.251 and 0.276
- pThrNKCC1 / NKCC1 [2, 5]: 0.317 and 0.294 and 0.283 and 0.306
- pThrNKCC1 / NKCC1 [2, 6]: 0.131 and 0.156 and 0.1342 and 0.125
- pThrNKCC1 / NKCC1 [2, 8]: 0.112 and 0.132 and 0.122 and 0.109
- pThrNKCC1 / NKCC1 [2, 9]: 0.022 and 0.043 and 0.035 and 0.028
- pThrNKCC1 / NKCC1 [2, 10]: 0.008 and 0.006 and 0.004 and 0.005
- pSer373 / SPAK [3, 5]: 0.297 and 0.248 and 0.275 and 0.253
- pSer373 / SPAK [3, 6]: 0.179 and 0.135 and 0.168 and 0.158
- pSer373 / SPAK [3, 7]: 0.066 and 0.034 and 0.051 and 0.049
- pSer373 / SPAK [3, 8]: 0.112 and 0.124 and 0.132 and 0.106
- pSer373 / SPAK [3, 9]: 0.08 and 0.07 and 0.064 and 0.084
- pSer373 / SPAK [3, 10]: 0.034 and 0.025 and 0.043 and 0.026
- Site-2 phospho / KCC [4, 5]: 0.281 and 0.258 and 0.279 and 0.266
- Site-2 phospho / KCC [4, 6]: 0.143 and 0.176 and 0.159 and 0.132
- Site-2 phospho / KCC [4, 7]: 0.021 and 0.042 and 0.035 and 0.025
- Site-2 phospho / KCC [4, 8]: 0.271 and 0.243 and 0.219 and 0.263
- Site-2 phospho / KCC [4, 9]: 0.186 and 0.176 and 0.131 and 0.159
- Site-2 phospho / KCC [4, 10]: 0.052 and 0.041 and 0.03 and 0.048
